# The source made the active and inactive calls. The rule behind the calls is not given here.
# Test system: Human immunodeficiency virus 1
# Assay: Induction of sensitization to HIV-1CH58TF infected in CD4-positive T cells assessed as […] cellular cytotoxicity at 50 uM incubated for 4 to 6 hrs by AquaVivid/eFluor670 staining based by flow cytometric analysis
# Assay type: functional, organism-based
# Details: not given
row,Structure (SMILES),Activity
1,NCCNC(=O)N1CCC[C@H](C(=O)Nc2ccc(Cl)c(F)c2)C1,Active
2,CCCNC(=O)N1CCC[C@H](C(=O)Nc2ccc(Cl)c(F)c2)C1,Active
3,COC(=O)N1CCC[C@H](C(=O)Nc2ccc(Cl)c(F)c2)C1,Active
4,CS(=O)(=O)N1CCC[C@H](C(=O)Nc2ccc(Cl)c(F)c2)C1,Active
5,CCOC(=O)N1CCC[C@H](C(=O)Nc2ccc(Cl)c(F)c2)C1,Active

# Target: Envelope glycoprotein gp160 (Human immunodeficiency virus 1) (UniProt Q6QLK5)
# Assay: Binding affinity to HIV1JRFL envelope glycoprotein expressed in human HOS cells assessed as fold change in binding to CoRBS 17b incubated for 1 hrs by cell based ELISA relative to BNM-III-170
# Details: JRFL
# Sequence of Envelope glycoprotein gp160 (Human immunodeficiency virus 1) (Q6QLK5 1-814): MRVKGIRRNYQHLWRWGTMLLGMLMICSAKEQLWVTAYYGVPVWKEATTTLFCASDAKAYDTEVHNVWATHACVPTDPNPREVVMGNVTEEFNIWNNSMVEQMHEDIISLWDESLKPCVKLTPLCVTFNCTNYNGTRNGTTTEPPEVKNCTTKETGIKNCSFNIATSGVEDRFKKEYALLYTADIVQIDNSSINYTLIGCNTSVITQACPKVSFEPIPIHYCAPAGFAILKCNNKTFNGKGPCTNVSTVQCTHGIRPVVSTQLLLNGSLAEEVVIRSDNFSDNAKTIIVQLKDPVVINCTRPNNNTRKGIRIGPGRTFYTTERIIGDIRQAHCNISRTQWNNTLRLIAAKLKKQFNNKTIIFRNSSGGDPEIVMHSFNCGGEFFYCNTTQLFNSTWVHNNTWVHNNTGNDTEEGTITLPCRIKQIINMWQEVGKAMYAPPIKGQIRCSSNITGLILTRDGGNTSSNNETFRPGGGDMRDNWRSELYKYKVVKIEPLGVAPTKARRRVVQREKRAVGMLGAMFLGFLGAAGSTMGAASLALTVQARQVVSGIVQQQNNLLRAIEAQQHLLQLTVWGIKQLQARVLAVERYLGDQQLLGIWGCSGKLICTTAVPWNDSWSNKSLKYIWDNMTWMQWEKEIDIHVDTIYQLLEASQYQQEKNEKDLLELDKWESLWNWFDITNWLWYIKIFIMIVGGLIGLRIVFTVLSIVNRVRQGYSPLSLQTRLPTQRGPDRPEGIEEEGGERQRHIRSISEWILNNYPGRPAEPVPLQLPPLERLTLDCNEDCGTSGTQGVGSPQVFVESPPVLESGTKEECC
row,Structure (SMILES),fold change (FC)
1,NCCNC(=O)N1C[C@H](N)C[C@H](C(=O)Nc2ccc(Cl)c(F)c2)C1,0.06
2,O=C(Nc1ccc(Cl)c(F)c1)[C@H]1CCCN(S(=O)(=O)c2ccccc2)C1,0.45
3,NCCNC(=O)N1CCC[C@H](C(=O)Nc2ccc(Cl)c(F)c2)C1,0.58
4,CS(=O)(=O)N1CCC(C(=O)Nc2ccc(Cl)c(F)c2)CC1,0.21
5,CCCNC(=O)N1C[C@H](N)C[C@H](C(=O)Nc2ccc(Cl)c(F)c2)C1,0.11
6,CS(=O)(=O)N1CCNC(C(=O)Nc2ccc(Cl)c(F)c2)C1 (racemic),0.1
7,CS(=O)(=O)N1CCC(C(=O)Nc2ccc(Cl)c(F)c2)C1 (racemic),0.36
8,CS(=O)(=O)N1CC(C(=O)Nc2ccc(Cl)c(F)c2)Cc2ccccc21 (racemic),0.24
9,CS(=O)(=O)N1CCCC(NC(=O)c2ccc(Cl)c(F)c2)C1 (racemic),0.08
10,CCS(=O)(=O)N1CCC[C@H](C(=O)Nc2ccc(Cl)c(F)c2)C1,0.35
11,CS(=O)(=O)N1CCC[C@H](C(=O)Nc2ccc(Br)cc2)C1,0.36
12,CCCNC(=O)N1CCC[C@H](C(=O)Nc2ccc(Cl)c(F)c2)C1,0.55
13,COC(=O)N1CCC[C@H](C(=O)Nc2ccc(Cl)c(F)c2)C1,0.5
14,CS(=O)(=O)N1CCC[C@H](C(=O)Nc2ccc(Cl)c(F)c2)C1,0.58
15,CS(=O)(=O)N1CCC[C@@H](C(=O)Nc2ccc(Cl)cc2)C1,0.08
16,CCCNC(=N)N1CCC[C@H](C(=O)Nc2ccc(Cl)c(F)c2)C1,0.85
17,CCS(=O)(=O)N1CCCC(C(=O)Nc2ccc(Cl)c(F)c2)C1 (racemic),0.42
18,CC(C)COC(=O)N1CCC[C@H](C(=O)Nc2ccc(Cl)c(F)c2)C1,0.62
19,NCCOC(=O)N1C[C@H](N)C[C@H](C(=O)Nc2ccc(Cl)c(F)c2)C1,0.07
20,CS(=O)(=O)N1CCC[C@H](C(=O)Nc2ccc(Cl)cc2)C1,0.31
21,O=C(Nc1ccc(Cl)c(F)c1)C1CCCOC1 (racemic),0.48
22,O=C(Nc1ccc(Cl)c(F)c1)[C@@H]1CCCOC1,0.28
23,NCCCNC(=O)N1CCC[C@H](C(=O)Nc2ccc(Cl)c(F)c2)C1,0.25
24,CCCOC(=O)N1CCC[C@H](C(=O)Nc2ccc(Cl)c(F)c2)C1,0.51
25,O=C(Nc1ccc(Cl)c(F)c1)[C@H]1CCCOC1,0.58
26,NCCCNC(=O)N1C[C@H](N)C[C@H](C(=O)Nc2ccc(Cl)c(F)c2)C1,0.06
27,CS(=O)(=O)N1CCC[C@H](C(=O)Oc2ccc(Cl)c(F)c2)C1,0.07
28,CCOC(=O)N1CCC[C@H](C(=O)Nc2ccc(Cl)c(F)c2)C1,0.53
29,CS(=O)(=O)N1CCOC(C(=O)Nc2ccc(Cl)c(F)c2)C1 (racemic),0.28

# Target: Envelope glycoprotein gp160 (Human immunodeficiency virus 1, UniProt Q6QLK5)
# Assay: Binding affinity to HIV1 YU-2 gp120 by isothermal titration calorimetric analysis
# Details: not given
# Sequence of Envelope glycoprotein gp160 (Q6QLK5 whole entry): as the sequence (Q6QLK5 1-814) above
row,Structure (SMILES),Kd
1,COC(=O)N1CCC[C@H](C(=O)Nc2ccc(Cl)c(F)c2)C1,1800 nM
2,CS(=O)(=O)N1CCC[C@H](C(=O)Nc2ccc(Cl)c(F)c2)C1,2800 nM
3,CS(=O)(=O)N1CCC[C@H](C(=O)Nc2ccc(Cl)cc2)C1,> 10000 nM
4,CCOC(=O)N1CCC[C@H](C(=O)Nc2ccc(Cl)c(F)c2)C1,770 nM
